Tests used:
[1] = Excretion and mass balance in urine and feces; format: in vivo, human; conditions: single oral administration
From the text: Six healthy male volunteers, 25–45 years of age, with a mean body weight of 83.3 kg (range 64.5–94.4) and a mean body mass index of 26.9 kg/m^2 (range 20.2–29.9) participated in the study. […] The subject release criterion was defined as follows: the combined urine and fecal radioactivity excretion for two consecutive days should fall below 1% of the dose administered.
Detailed procedures on sample collection, storage, and shipment are described in Online Resource 1. […] Urine and feces collected from each subject were pooled at predose and every 24 h thereafter. Fecal homogenates were prepared by adding water (four times the feces weight) and homogenizing.
TRA analysis was carried out at ABC Laboratories. The radioactivity in plasma (duplicate per time point) and urine samples (triplicate per time point) was quantitated by direct counting in a Beckman LS6000SC or LS6500 liquid scintillation counter (PerkinElmer Life and Analytical Sciences, Boston, MA, USA). Whole blood (duplicate per time point) and fecal homogenate (triplicate per time point) samples were oxidized, and the resultant ^14CO2 was trapped in Carbosorb (Calgon Carbon Corporation, Pittsburgh, PA, USA) in combination with Permafluor, followed by liquid scintillation counting to determine the radioactivity. Individual samples were counted for 5 min for whole blood and fecal matrices, and 10 min for plasma and urine matrices. Predose blood, plasma, urine, and feces samples served as respective control samples to determine and subtract the background radioactivity in the analysis.
All urine voided was collected and stored in containers at 5±3 °C until the collection interval was completed. Subjects voided in the morning prior to study drug administration.
Multiple collections of urine during each collection interval from each individual subject were pooled. The urine samples from each collection interval were well mixed, accurately weighed, and assessed for its pH. A 100 ml sample from each collection interval from each subject was aliquoted into a separately labeled container to be sent to ABC Laboratories for radioactivity analysis. An approximately 10 ml sample from each collection interval from each subject on day 8 and each day thereafter was used for TRA analysis at Celerion (Lincoln, NE). All urine samples were kept frozen at −80 ± 15 °C.
Stool collections began approximately 24 h prior to drug administration until the end of the postdose sampling period. The 24 h predose samples were used as control samples for the radioactivity analysis and metabolite profiling. Feces were collected daily (24 h collection periods) until subjects were discharged from the clinical research unit.
All fecal samples were collected in polypropylene containers; toilet paper was collected separately. The weight of each sample was recorded. Multiple collections of feces during each collection interval from each individual subject were pooled. The feces samples were thoroughly homogenized with water (4X the weight of the feces). A 100 g sample was aliquoted into a separately labeled container to be sent to ABC Laboratories for radioactivity analysis. An approximately 10 g sample from each collection interval from each subject on day 8 and each day thereafter was used for TRA analysis at Celerion. All fecal homogenate samples were kept frozen at −80 ± 15 °C.

[2] = Metabolite profiling of urine (HPLC-radiochromatography); format: in vivo, human; conditions: 0–72 h pool
Procedure: Predose and 0–72-h urine samples (grand pool of all six subjects) were prepared. Urine samples (5 mL) were centrifuged, the supernatant was transferred to a 15-mL polypropylene tube and placed on ice; the residues were extracted with 1 mL of methanol and the methanol extracts were added to the supernatants. The combined extracts were evaporated under nitrogen and reconstituted in 0.2 mL of methanol. A 0.010-mL aliquot of the reconstituted solution was removed for determination of radioactivity, and the remainder was transferred to HPLC vials and stored at −80 °C.
A Finnigan Surveyor HPLC system (Thermo Fisher Scientific Inc., San Jose, CA, USA), consisting of an LC pump plus an autosampler and a UV–Vis plus detector, was used mostly for profiling (except the post-24-h plasma samples, which were analyzed using a Dionex HPLC system). A Phenomenex® Gemini® C18, 5-μm, 3.0 × 100-mm column (Phenomenex Inc., Torrance, CA, USA) was used along with a C-12 guard column (4 × 2 mm). LC conditions were as follows: solvent A was 10 mM ammonium bicarbonate in water (pH 10.0) and solvent B was 100% methanol and the flow rate was 0.8 mL/min. The following gradient was employed (B%): 0–5 min (20%), 32 min (42%), 33 min (60%), 55 min (70%), 56–60 min (95%), and 62–70 min (20%).
Reconstituted solvent extracts (0.050–0.10 mL) of plasma, urine, or feces were injected onto the HPLC column. The post-column eluate was split after UV detection into two streams (0.64 and 0.16 mL/min). The 0.64-mL stream was diverted to a fraction collector (Gilson FX 204; Gilson Medical Electronics, Middleton, WI, USA) to be collected in 96-well plates at 0.16 min/well (ScintiPlates; PerkinElmer Life Sciences, Shelton, CT, USA), and the 0.16-mL stream was directed to the mass spectrometer. The solvent in the 96-well plates was removed at 40 °C using a Genevac evaporator (Genevac, Inc., Stone Ridge, NY, USA).
The radioactivity counts per minute (CPM) in each well was determined using a MicroBeta scintillation counter (PerkinElmer Life and Analytical Sciences). The resulting CPM vs. time data were processed using Excel (Microsoft Corporation, Seattle, WA, USA). The CPM in each well was background-subtracted (using the average CPM values of the blank region of the HPLC run). Radiochromatographic profiles were obtained by plotting the resulting net CPM values against time after injection. Radioactive peaks in the chromatographic profiles were identified, and the radioactivity in each peak was summed and reported as a percentage of TRA in the HPLC run.

[3] = Metabolite characterization by LC/MS/MS in human plasma, urine, and feces; conditions: human plasma, urine, feces; LC/MS/MS
Procedure: The remaining eluate stream of 0.16 mL/min from the HPLC runs was diverted to the inlet of the mass spectrometer. The samples were analyzed using a heated electrospray ionization probe. Full-scan positive ion MS data were collected using Finnigan Exactive (MS^1) or Q-Exactive (MS^1 and MS^2) mass spectrometers (Thermo Fisher Scientific Inc.) Exact conditions are described in the Online Resource 3.
Finnigan Exactive or Q-Exactive mass spectrometers (Thermo Fisher Scientific Inc., San Jose, CA) were used to collect full scan MS^1 and MS^2 data.

human liver microsomes = assay: In vitro metabolism with human liver microsomes and CYP-specific chemical inhibitors (data not shown); format: in vitro ADME; conditions: CYP-specific chemical inhibitors

elimination pathway N-demethylation, share of dose [1]: 8.3%
elimination pathway hydroxylation, share of dose [1]: 18.0%
elimination pathway methylation, share of dose [1]: 8.4%
elimination pathway amide bond hydrolysis, share of dose ([1]; estimated from 81% of urinary TRA and 5.4% of dose in urine): 4.4%
% of total radioactive dose [2]: <0.05%
% Distribution in matrix ([2]; % of urinary TRA): Trace levels
Matrix (in which the metabolite was found) [3]: P, U, F
Compound: Cc1ccc(C(=O)Nc2ccc(CN3CCN(C)CC3)c(C(F)(F)F)c2)cc1C#Cc1cnc2cccnn12.Cl [Ponatinib, 3-(imidazo[1,2-b]pyridazin-3-ylethynyl)-4-methyl-N-(4-((4-methylpiperazin-1-yl)methyl)-3-(trifluoromethyl)phenyl)benzamide hydrochloride]
CYP enzymes that metabolize the compound (human liver microsomes): metabolized mostly by CYP3A4 and to a lesser extent by CYP2D6 and CYP2C8

Source: article PMC5344956 (Cancer Chemotherapy and Pharmacology, 2017)
